Results reported in patent publication US20220306647A1, “NOVEL INDOLE-2-CARBOXAMIDES ACTIVE AGAINST THE HEPATITUS B VIRUS (HBV)” (AICURIS GMBH & CO. KG, priority 2019, published 2022).

Tests used:
[1] = test system: HBV (HepAD38 cells); experiment: HBV replication assay: determination of HBV DNA from the supernatants of HepAD38 cells; type: cell-based; conditions: Hepatitis B virus, 144 h, HBV DNA in HepAD38 supernatant at day 6, qPCR, read-out: Cell activity
Protocol: Determination of HBV DNA from the Supernatants of HepAD38 Cells
The anti-HBV activity was analysed in the stable transfected cell line HepAD38, which has been described to secrete high levels of HBV virion particles (Ladner et al., 1997). In brief, HepAD38 cells were cultured at 37° C. at 5% CO2 and 95% humidity in 200 μl maintenance medium, which was Dulbecco's modified Eagle's medium/Nutrient Mixture F-12 (Gibco, Karlsruhe), 10% fetal bovine serum (PAN Biotech Aidenbach) supplemented with 50 μg/ml penicillin/streptomycin (Gibco, Karlsruhe), 2 mM L-glutamine (PAN Biotech, Aidenbach), 400 μg/ml G418 (AppliChem, Darmstadt) and 0.3 μg/ml tetracycline. Cells were subcultured once a week in a 1:5 ratio, but were usually not passaged more than ten times. For the assay 60,000 cells were seeded in maintenance medium without any tetracycline into each well of a 96-well plate and treated with serial half-log dilutions of test compound. To minimize edge effects the outer 36 wells of the plate were not used but were filled with assay medium. On each assay plate six wells for the virus control (untreated HepAD38 cells) and six wells for the cell control (HepAD38 cells treated with 0.3 μg/ml tetracycline) were allocated, respectively. In addition, one plate set with reference inhibitors like BAY 41-4109, entecavir, and lamivudine instead of screening compounds were prepared in each experiment. In general, experiments were performed thrice in triplicates. At day 6 HBV DNA from 100 μl filtrated cell culture supernatant (AcroPrep Advance 96 Filter Plate, […] Supor membran, PALL GmbH, Dreieich) was automatically purified on the MagNa Pure LC instrument using the MagNA Pure 96 DNA and Viral NA Small Volume Kit (Roche Diagnostics, Mannheim) according to the instructions of the manufacturer. EC50 values were calculated from relative copy numbers of HBV DNA In brief, 5 μl of the 100 μl eluate containing HBV DNA were subjected to PCR LC480 Probes Master Kit (Roche) together with 1 μM antisense primer […], 0.5 μM sense primer […], 0.3 μM hybprobes […]-FL and LC640-[…]-PH (TIBMolBiol, Berlin) to a final volume of 12.5 μl. The PCR was performed on the Light Cycler 480 real time system (Roche Diagnostics, Mannheim) using the following protocol: Pre-incubation for 1 min at 95° C., amplification: 40 cycles×(10 sec at 95° C., 50 sec at 60° C., 1 sec at 70° C.), cooling for 10 sec at 40° C. Viral load was quantitated against known standards using HBV plasmid DNA of pCH-9/3091 (Nassal et al., 1990, Cell 63: 1357-1363) and the LightCycler 480 SW 1.5 software (Roche Diagnostics, Mannheim) and EC50 values were calculated using non-linear regression with GraphPad Prism 6 (GraphPad Software Inc., La Jolla, USA).

[2] = target: T1, HBV core protein (C-terminal truncated core protein, 149 amino acids of the N-terminal assembly domain, BODIPY-FL labelled) (UniProt P03146); experiment: Biochemical capsid assembly assay (fluorescence quenching); conditions: assembly started with NaCl, fluorescence read after 6 min, read-out: Assembly activity
T1 construct: fused on or other part: A single cysteine added after residue 149, at position 150; It carries the BODIPY-FL maleimide label
Protocol: The screening for assembly effector activity was done based on a fluorescence quenching assay published by Zlotnick et al. (2007). The C-terminal truncated core protein containing 149 amino acids of the N-terminal assembly domain fused to a unique cysteine residue at position 150 and was expressed in E. coli using the pET expression system (Merck Chemicals, Darmstadt). Purification of core dimer protein was performed using a sequence of size exclusion chromatography steps. In brief, the cell pellet from 1 L BL21 (DE3) Rosetta2 culture expressing the coding sequence of core protein cloned NdeI/XhoI into expression plasmid pET21b was treated for 1 h on ice with a native lysis buffer (Qproteome Bacterial Protein Prep Kit; Qiagen, Hilden). After a centrifugation step the supernatant was precipitated during 2 h stirring on ice with 0.23 g/ml of solid ammonium sulfate. Following further centrifugation the resulting pellet was resolved in buffer A (100 mM Tris, pH 7.5; 100 mM NaCl; 2 mM DTT) and was subsequently loaded onto a buffer A equilibrated CaptoCore 700 column (GE HealthCare, Frankfurt). The column flow through containing the assembled HBV capsid was dialyzed against buffer N (50 mM NaHCO3 pH 9.6; 5 mM DTT) before urea was added to a final concentration of 3M to dissociate the capsid into core dimers for 1.5 h on ice. The protein solution was then loaded onto a 1L Sephacryl S300 column. After elution with buffer N core dimer containing fractions were identified by SDS-PAGE and subsequently pooled and dialyzed against 50 mM HEPES pH 7.5; 5 mM DTT. To improve the assembly capacity of the purified core dimers a second round of assembly and disassembly starting with the addition of 5 M NaCl and including the size exclusion chromatography steps described above was performed. From the last chromatography step core dimer containing fractions were pooled and stored in aliquots at concentrations between 1.5 to 2.0 mg/ml at −80° C.
Immediately before labelling the core protein was reduced by adding freshly prepared DTT in a final concentration of 20 mM. After 40 min incubation on ice storage buffer and DTT was removed using a Sephadex G-25 column (GE HealthCare, Frankfurt) and 50 mM HEPES, pH 7.5. For labelling 1.6 mg/ml core protein was incubated at 4° C. and darkness overnight with BODIPY-FL maleimide (Invitrogen, Karlsruhe) in a final concentration of 1 mM. After labelling the free dye was removed by an additional desalting step using a Sephadex G-25 column. Labelled core dimers were stored in aliquots at 4° C. In the dimeric state the fluorescence signal of the labelled core protein is high and is quenched during the assembly of the core dimers to high molecular capsid structures. The screening assay was performed in black 384 well microtiter plates in a total assay volume of 10 μl using 50 mM HEPES pH 7.5 and 1.0 to 2.0 μM labelled core protein. Each screening compound was added in 8 different concentrations using a 0.5 log-unit serial dilution starting at a final concentration of 100 μM, 31.6 μM or 10 μM, In any case the DMSO concentration over the entire microtiter plate was 0.5%. The assembly reaction was started by the injection of NaCl to a final concentration of […] which induces the assembly process to approximately 25% of the maximal quenched signal. 6 min after starting the reaction the fluorescence signal was measured using a Clariostar plate reader (BMG Labtech, Ortenberg) with an excitation of 477 nm and an emission of 525 nm. As 100% and 0% assembly control HEPES buffer containing 2.5 M and 0 M NaCl was used. Experiments were performed thrice in triplicates. EC50 values were calculated by non-linear regression analysis using the Graph Pad Prism 6 software (GraphPad Software, La Jolla, USA).

T1 sequence (P03146 whole entry, the tested form may be a part): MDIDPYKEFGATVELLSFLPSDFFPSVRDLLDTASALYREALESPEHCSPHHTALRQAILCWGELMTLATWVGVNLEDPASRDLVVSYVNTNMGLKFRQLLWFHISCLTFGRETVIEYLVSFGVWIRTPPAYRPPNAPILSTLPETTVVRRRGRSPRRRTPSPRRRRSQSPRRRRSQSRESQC

Compound | EC50 [1] | IC50 [2]
O=C(c1cc2ccccc2[nH]1)N1CCc2onc(C(=O)N3CCCC34CC4)c2C1 [Example 1, 2-(3-{4-azaspiro[2.4]heptane-4-carbonyl}-4H,5H,6H,7H-[1,2]oxazolo[4,5-c]pyridine-5-carbonyl)-1H-indole] | 1 to 10 µM | –
CN(C(=O)c1noc2c1CN(C(=O)c1cc3ccccc3[nH]1)CC2)C1(c2cocn2)CC1 [Example 2, 5-(1H-indole-2-carbonyl)-N-methyl-N-[1-(1,3-oxazol-4-yl)cyclopropyl]-4H,5H,6H,7H-[1,2]oxazolo[4,5-c]pyridine-3-carboxamide] | < 1 µM | < 5 µM
CCc1cc(F)cc2[nH]c(C(=O)N3CCc4onc(C(=O)N(C)C5(COC)CC5)c4C3)cc12 [Example 4, 5-(4-ethyl-6-fluoro-1H-indole-2-carbonyl)-N-[1-(methoxymethyl)cyclopropyl]-N-methyl-4H,5H,6H,7H-[1,2]oxazolo[4,5-c]pyridine-3-carboxamide] | < 1 µM | < 5 µM
COCC1(N(C)C(=O)c2noc3c2CN(C(=O)c2cc4c(Cl)cccc4[nH]2)CC3)CC1 [Example 5, 5-(4-chloro-1H-indole-2-carbonyl)-N-[1-(methoxymethyl)cyclopropyl]-N-methyl-4H,5H,6H,7H-[1,2]oxazolo[4,5-c]pyridine-3-carboxamide] | < 1 µM | < 5 µM
COCC1(N(C)C(=O)c2noc3c2CN(C(=O)c2cc4c(F)cc(F)cc4[nH]2)CC3)CC1 [Example 6, 5-(4,6-difluoro-1H-indole-2-carbonyl)-N-[1-(methoxymethyl)cyclopropyl]-N-methyl-4H,5H,6H,7H-[1,2]oxazolo[4,5-c]pyridine-3-carboxamide] | < 1 µM | < 5 µM
COCC1(N(C)C(=O)c2noc3c2CN(C(=O)c2cc4ccccc4[nH]2)CC3)CC1 [Example 7, 5-(1H-indole-2-carbonyl)-N-[1-(methoxymethyl)cyclopropyl]-N-methyl-4H,5H,6H,7H-[1,2]oxazolo[4,5-c]pyridine-3-carboxamide] | < 1 µM | < 5 µM
CN(C(=O)c1noc2c1CN(C(=O)c1cc3ccccc3[nH]1)CC2)C1(CO)CC1 [Example 8, N-[I1-(hydroxymethyl)cyclopropyl]-5-(1H-indole-2-carbonyl)-N-methyl-4H,5H,6H,7H-[1,2]oxazolo[4,5-c]pyridine-3-carboxamide] | < 1 µM | < 5 µM
CN(C(=O)c1noc2c1CN(C(=O)c1cc3ccccc3[nH]1)CC2)C1(COC(=O)c2ccccc2)CC1 [Example 9, {1-[N-methyl-5-(1H-indole-2-carbonyl)-4H,5H,6H,7H-[1,2]oxazolo[4,5-c]pyridine-3-amido]cyclopropyl}methyl benzoate] | < 1 µM | –
O=C(NC1CC1)c1noc2c1CN(C(=O)c1cc3ccccc3[nH]1)CC2 [Example 10, N-cyclopropyl-5-(1H-indole-2-carbonyl)-4H,5H,6H,7H-[1,2]oxazolo[4,5-c]pyridine-3-carboxamide] | < 100 µM | < 5 µM
CN(C(=O)c1noc2c1CN(C(=O)c1cc3ccccc3[nH]1)CC2)C1CC1 [Example 11, N-cyclopropyl-5-(1H-indole-2-carbonyl)-N-methyl-4H,5H,6H,7H-[1,2]oxazolo[4,5-c]pyridine-3-carboxamide] | < 100 µM | < 5 µM
O=C(c1cc2ccccc2[nH]1)N1CCc2onc(C(=O)N3CCC(F)(F)C3)c2C1 [Example 25, 2-[3-(3,3-difluoropyrrolidine-1-carbonyl)-4H,5H,6H,7H-[1,2]oxazolo[4,5-c]pyridine-5-carbonyl]-1H-indole] | 1 to 10 µM | –
COC(=O)CN1C(=O)c2c3c(nn2CCC12CC2)CCN(C(=O)c1cc2ccccc2[nH]1)C3 [Example 149, methyl 2-[4′-(1H-indole-2-carbonyl)-14′-oxo-4′, 8′,9′,13′-tetraazaspiro[cyclopropane-1,12′-tricyclo[7.5.0.0^2,7]tetradecane]-1′,7′-dien-13′-yl]acetate] | – | < 5 µM
